The text below walks through data of patent US12433901B2, “Compounds and methods for prevention and treatment of coronavirus infections” (ARJIL BIOTECH HOLDING COMPANY LIMITED, priority 2020, dated 2025).

The experiment has as its target SARS-CoV-2 3CLpro (Severe acute respiratory syndrome coronavirus 2, UniProt P0DTD1). Kind of experiment: ED-FRET protease assay with SARS-CoV-2 3CLpro (DABCYL-[…]-EDANS IQF peptide substrate). Format: biochemical. Conditions: for inhibitory effect on peptide-cleaving activity of SARS-CoV-2 3CLpro (in words): compound 20 μM, FIG. 1; for IC50: IC50, relative 3CLpro activity.

The mark [1] stands for this setting: 0.125 μM SARS-CoV-2 3CLpro and 1.25 μM IQF peptide substrate (0.125p/1.25FP).

Values joined by “and” are separate entries in the source; they are usually repeats but may differ in a detail not shown here. Identical values can stand only once.

`C=C(CC[C@@H](C)[C@H]1CC[C@H]2C3=C(C(=O)C[C@]12C)[C@@]1(C)CC[C@@H](O)[C@](C)(O)[C@@H]1C[C@@H]3O)[C@@H](C)C(=O)O` (stereo in doubt) [AR101 DS1]: the “inhibitory effect on peptide-cleaving activity of SARS-CoV-2 3CLpro (in words)” value (from here on “inhibitory effect … (in words)”) is recorded as “inhibitory effect”.
As a reminder, the IC50 is the concentration that inhibits the measured activity by half. A higher IC50 goes with weaker potency in that assay. With `C=C1C(=O)O[C@H]2/C=C(\C)CC3C=C(CC/C=C(\C)CC[C@H]12)C(=O)O3` (stereo partly drawn) [AR100 DS1], the “inhibitory effect … (in words)” value is listed as “inhibitory effect”. Under setting [1], this compound gave a half-maximal inhibitory concentration (IC50) of 21.3 µM.
What is called inhibition is the change of the read-out against control, counted positive when it falls. `C=C(CC[C@@H](C(=O)O)[C@H]1C[C@H](OC(C)=O)[C@@]2(C)C3=C(CC[C@]12C)[C@@]1(C)CC[C@H](O)C(C)(C)[C@@H]1CC3)C(C)C` [AR101 DS3]: the “inhibitory effect … (in words)” value is “utmost inhibitory effect”. For the same compound, the IC50 under setting [1] worked out at 11.7 µM. The IC50 (0.25 μM SARS-CoV-2 3CLpro and 2.5 μM IQF peptide substrate) was found to be 11.1 µM. The concentration for half-maximal inhibition (IC50) (0.5 μM SARS-CoV-2 3CLpro and 5 μM IQF peptide substrate (0.5p/5FP)) was 14.6 µM and 11.1 µM. Under “read-out: SARS-CoV-2 3CLpro inhibition”, the inhibition at 20 µM is roughly 50%.
In the case of `C=C(CC[C@@H](C(=O)O)[C@H]1CC[C@@]2(C)C3=CC[C@H]4C(C)(C)[C@@H](O)CC[C@]4(C)C3=CC[C@]12C)C(C)C` [AR101 DS4], the “inhibitory effect … (in words)” value is “inhibitory effect”.
